Results on 2 molecules are retold here after patent US11129801B2 (SigmaThera SAS, priority 2016, dated 2021).

For the assay, the system named is rat motor neurons (Islet 1/2 positive neurons). Kind of assay: Survival of primary motor neurons injured by glutamate. To be noted: glutamate 40 μM, 20 min. In kind it is cell-based. As to the method: Rat motor neurons were cultured as described (Camu et al. (1994) Journal of the neurological sciences 124 Suppl: 73-74). Briefly, pregnant female rats of 14 days gestation were killed by cervical dislocation (Rats Wistar; Janvier Lab) and the foetuses were removed from the uterus. The spinal cord were removed and placed in ice-cold PBS. Tissue segments were spun down, incubated in 0.025% (w/v) of trypsin-EDTA (Panbiotech, Ref: P10-023100) for 10 min at 37° C. Fragments were transferred in 1 mL of complete Leibovitz medium containing BSA (0.4%, Dustcher, Ref: P06-1391100) and DNasel grade II (0.1 mg/ml, Panbiotech, ref: P60-37780100). Cells were then dissociated by several rounds of trituration, centrifuged for 5 min at 470 g on a 4% BSA cushion and re-suspended in 2 mL of supplemented L15 medium. Motor neurons were counted in a Neubauer cytometer using the trypan blue exclusion test. Cells were cultured at a density of 1.5×10^4 cells/well of a 96 wells plate on astrocyte monolayer in Neurobasal (Invitrogen, ref: 21103) containing 1% of B27 (Invitrogen, ref: 17504), 2 mM L-Glutamine (Panbiotech, ref: P04-80100), 1% of PS solution, […] 2-mercaptoethanol (Invitrogen, ref: 31350-010), 2% Horse serum (Invitrogen, Ref: 16050-122), 1 ng/ml of Brain-derived neurotrophic factor (BDNF, PanBiotech, Ref: CB-1115002) and 1 ng/ml of Glial derived neurotrophic factor (GDNF, Dustcher, Ref: CB-1116001) at 37° C. in a humidified air (95%)/CO2 (5%) atmosphere.
Briefly, after 10 days of culture, medium was removed and 100 μL of fresh medium (supplemented Neurobasal without neurotrophic factor) without or with test compound was added 1 h before glutamate intoxication. Then, Glutamate at 40 μM in absence or presence of test compound will be added in the culture medium and incubated 20 min. The cells were rinsed with incubation solution (3 wash-outs) and let in the neurobasal medium containing compounds or control medium for 24 h.
[…]_Control medium stimulated with vehicle medium […]
The data were expressed as mean±s.e.m (of 6 data per condition, 1 culture). […]

For `CCC(C/C=C/c1ccccc1)(c1ccccc1)N(C)CC1CC1` (single isomer, unassigned; (+)) [igmesine, (+)-(E)-N-(cyclopropylmethyl)-N-methyl-3,6-diphenylhex-5-en-3-amine], the “protective effect on motor neuron survival” value (0.1 μM, 0.3 μM, 1 μM, 3 μM and 10 μM) is reported as “significant protective effect”. Moreover, for the setting “10 μM”, the “Islet 1/2 positive neurons” value is 126 % of the control.

B1: BDNF: Brain-derived neurotrophic factor, used as a reference compound (protein, UniProt P23560 19-247, looked up)
Neurotrophic factor BDNF …: APMKEANIRGQGGLAYPGVRTHGTLESVNGPKAGSRGLTSLADTFEHVIEELLDEDQKVRPNEENNKDADLYTSRVMLSSQVPLEPPLLFLLEEYKNYLDAANMSMRVRRHSDPARRGELSVCDSISEWVTAADKKTAVDMSGGTVTVLEKVPVSKGQLKQYFYETKCNPMGYTKEGCRGIDKRHWNSQCRTTQSYVRALTMDSKKRIGWRFIRIDTSCVCTLTIKRGR
For B1, the “Islet 1/2 positive neurons” value (50 ng/mL) is on record as 96.43 % of the control.
